Values after ≈ are worked out from the molar mass of the structure shown. Where two headings read alike, the source gives them in different places.
Columns and labels:
Electrometric titration = type: physicochemical; conditions: 66% aqueous dmf; only or first pKa; read-out: pKa
Mycobacterium avium = experiment: standard disc-plate method, zone of inhibition; type: cell-based; conditions: 1.0 mg/ml, Table I, read-out: Zone of Inhibition (diameter in mm)
Description: (§1) The in vitro antimicrobial activity of the 3-halo cephalosporins is illustrated by the data in the following tables. Table I contains the antimicrobial activity for 7-[2-(2-thienyl)acetamido]-3-chloro-3-cephem-4-carboxylic acid obtained in the standard Disc-plate method. The numerical values are the diameter in millimeters of the zones of inhibition observed with the named organisms.
(§2) In Table IV below, the in vitro antimicrobial activity of 7-[2-(2-thienyl)acetamido]-3-bromo-3-cephem-4-carboxylic acid is presented for several illustrative microorganisms. The data presented were obtained in the standard disc-plate method with the numerical values recording the diameter in millimeters of the zones of inhibition observed with the named microorganisms.

Proteus vulgaris = experiment: standard disc-plate method, zone of inhibition; type: cell-based; conditions: 1.0 mg/ml, Table I, read-out: Zone of Inhibition (diameter in mm)
Description: as §1, §2

Escherichia coli [1] = experiment: standard disc-plate method, zone of inhibition; type: cell-based; conditions: Table I, read-out: Zone of Inhibition (diameter in mm)
Description: as §1, §2

Klebsiella pneumoniae [2] = experiment: standard disc-plate method, zone of inhibition; type: cell-based; conditions: Table I, read-out: Zone of Inhibition (diameter in mm)
Description: as §1, §2

Bacillus subtilis = experiment: standard disc-plate method, zone of inhibition; type: cell-based; conditions: Table I, read-out: Zone of Inhibition (diameter in mm)
Description: as §1, §2

Sarcina lutea = experiment: standard disc-plate method, zone of inhibition; type: cell-based; conditions: Micrococcus luteus, Table I, read-out: Zone of Inhibition (diameter in mm)
Description: as §1, §2

Staphylococcus aureus = experiment: standard disc-plate method, zone of inhibition; type: cell-based; conditions: Table I, read-out: Zone of Inhibition (diameter in mm)
Description: as §1, §2

[3] = system: Methicillin resistant Staphylococcus; experiment: Gradient Plate technique, MIC; type: cell-based; conditions: Clinical Isolate X400 (methicillin resistant)
Shigella sp. = experiment: Gradient Plate technique, MIC; type: cell-based; conditions: read-out: Minimum Inhibitory Concentration
Description: (§3) The following Table II lists the minimum inhibitory concentration (MIC) for 7-[2-(2-thienyl)acetamido]-3-chloro-3-cephem-4-carboxylic acid against penicillin resistant Staphylococcus both in the presence of and absence of serum. The MIC values were obtained by the Gradient Plate technique carried out essentially as described by Bryson and Szybalski, Science, 116, 45 (1952).
(§4) In Table III, below, the MIC values for the test compound of Tables I and II against representative gram-negative organisms is presented. The data were obtained by the Gradient Plate technique.
(§5) The minimum inhibitory concentrations for 7-[2-(2-thienyl)acetamido]-3-bromo-3-cephem-4-carboxylic acid against representative gram-negative bacteria is presented in Table VI. The data were obtained by the Gradient Plate Method.
(§6) Tables VII and VIII list the minimum inhibitory concentrations of the test compound effective against representative penicillin resistant Staphylococcus strains, while […] the MIC values obtained against representative gram-negative microorganisms. The data were obtained by the Gradient Plate method.

Aerobacter aerogenes = experiment: Gradient Plate technique, MIC; type: cell-based; conditions: Klebsiella aerogenes, read-out: Minimum Inhibitory Concentration
Description: as §3, §4, §5, §6

Escherichia coli [4] = experiment: Gradient Plate technique, MIC; type: cell-based; conditions: read-out: Minimum Inhibitory Concentration
Description: as §3, §4, §5, §6

Klebsiella pneumoniae [5] = experiment: Gradient Plate technique, MIC; type: cell-based; conditions: read-out: Minimum Inhibitory Concentration
Description: as §3, §4, §5, §6

Pseudomonas aeruginosa = experiment: Gradient Plate technique, MIC; type: cell-based; conditions: read-out: Minimum Inhibitory Concentration
Description: as §3, §4, §5, §6

Salmonella heidelberg = experiment: Gradient Plate technique, MIC; type: cell-based; conditions: Salmonella enterica, read-out: Minimum Inhibitory Concentration
Description: as §3, §4, §5, §6

Serratia marcescens = experiment: Gradient Plate technique, MIC; type: cell-based; conditions: read-out: Minimum Inhibitory Concentration
Description: as §3, §4, §5, §6

Salmonella gallinarum = experiment: standard disc-plate method, zone of inhibition; type: cell-based; conditions: Salmonella enterica, GALLINARUM, Table I, read-out: Zone of Inhibition (diameter in mm)
Description: as §1, §2

[6] = system: Pseudomonas solanacearcum; experiment: standard disc-plate method, zone of inhibition; type: cell-based; conditions: Pseudomonas, Table I, read-out: Zone of Inhibition (diameter in mm)
Description: as §1, §2

[7] = system: Penicillin Resistant Staphylococcus; experiment: Gradient Plate technique, MIC; type: cell-based; conditions: read-out: Minimum Inhibitory Concentration
Description: as §3, with “(1952). […]” for “(1952).”

Escherichia coli [8] = experiment: standard disc-plate method, zone of inhibition; type: cell-based; set-up: key: H: hazy zone of inhibition; Tr: trace zone of inhibition; conditions: 0.01 mg/ml; Table I
Description: as §1, §2

O=C(Cc1cccs1)NC1C(=O)N2C(C(=O)OCc3ccc([N+](=O)[O-])cc3)=C(O)CS[C@H]12 (stereo partly drawn) [Example 12, p-Nitrobenzyl 7-[2-(2-thienyl)acetamido]-3-hydroxy-3-cephem-4-carboxylate]
pKa (Electrometric titration): 5.9

O=C(Cc1cccs1)NC1C(=O)N2C(C(=O)O)=C(Cl)CS[C@H]12 (stereo partly drawn) [7-[2-(2-Thienyl)acetamido]-3-chloro-3-cephem-4-carboxylic acid]
zone of inhibition at 1000 µg/mL (Mycobacterium avium): 14 mm
zone of inhibition at 1000 µg/mL (Proteus vulgaris): 17 mm
zone of inhibition at 100 µg/mL (Escherichia coli [1]; 0.1 mg/ml): 19 mm
zone of inhibition at 1000 µg/mL (Escherichia coli [1]; 1.0 mg/ml): 24 mm
zone of inhibition at 10 µg/mL (Klebsiella pneumoniae [2]; 0.01 mg/ml): 13 mm
zone of inhibition at 100 µg/mL (Klebsiella pneumoniae [2]; 0.1 mg/ml): 27 mm
zone of inhibition at 1000 µg/mL (Klebsiella pneumoniae [2]; 1.0 mg/ml): 36 mm
zone of inhibition at 10 µg/mL (Bacillus subtilis; 0.01 mg/ml): 24 mm
zone of inhibition at 100 µg/mL (Bacillus subtilis; 0.1 mg/ml): 40 mm
zone of inhibition at 1000 µg/mL (Bacillus subtilis; 1.0 mg/ml): 48 mm
zone of inhibition at 10 µg/mL (Sarcina lutea; 0.01 mg/ml): 21 mm
zone of inhibition at 100 µg/mL (Sarcina lutea; 0.1 mg/ml): 28 mm
zone of inhibition at 1000 µg/mL (Sarcina lutea; 1.0 mg/ml): 37 mm
zone of inhibition at 10 µg/mL (Staphylococcus aureus; 0.01 mg/ml): 20 mm
zone of inhibition at 100 µg/mL (Staphylococcus aureus; 0.1 mg/ml): 29 mm
zone of inhibition at 1000 µg/mL (Staphylococcus aureus; 1.0 mg/ml): 31 mm
Minimum Inhibitory Concentration ([3]; Serum): > 20 µg/mL
MIC ([3]; Staphylococcus, No Serum, read-out: Minimum Inhibitory Concentration): > 20 µg/mL
MIC (Shigella sp.): 25 µg/mL (≈ 69.7 µM)
MIC (Aerobacter aerogenes): 0.8 µg/mL (≈ 2.23 µM)
MIC (Escherichia coli [4]): 18.5 µg/mL (≈ 51.6 µM)
MIC (Klebsiella pneumoniae [5]): 0.6 µg/mL (≈ 1.67 µM)
MIC (Pseudomonas aeruginosa): > 200 µg/mL
MIC (Salmonella heidelberg): 0.8 µg/mL (≈ 2.23 µM)
MIC (Serratia marcescens): > 200 µg/mL
zone of inhibition at 100 µg/mL (Salmonella gallinarum; 0.1 mg/ml): 22 mm
zone of inhibition at 1000 µg/mL (Salmonella gallinarum; 1.0 mg/ml): 32 mm
zone of inhibition at 100 µg/mL ([6]; 0.1 mg/ml): 21 mm
zone of inhibition at 1000 µg/mL ([6]; 1.0 mg/ml): 28 mm
MIC ([7]; Clinical Isolate V 32, No Serum): 8.4 µg/mL (≈ 23.4 µM)
MIC ([7]; Clinical Isolate V 32, Serum): > 20 µg/mL
MIC ([7]; Clinical Isolate V 41, No Serum): 5 µg/mL (≈ 13.9 µM)
MIC ([7]; Clinical Isolate V 41, Serum): 7 µg/mL (≈ 19.5 µM)
MIC ([7]; Clinical Isolate V 84, No Serum): 0.8 µg/mL (≈ 2.23 µM)
MIC ([7]; Clinical Isolate V 84, Serum): 1 µg/mL (≈ 2.79 µM)
MIC ([7]; Clinical Isolate X 1.1, No Serum): 0.2 µg/mL (≈ 0.557 µM)
MIC ([7]; Clinical Isolate X 1.1, Serum): < 0.1 µg/mL
Zone of Inhibition (diameter in mm) (Escherichia coli [8]): Tr

— patent US4260745A, “3-Halo cephalosporins” (Eli Lilly and Company, priority 1979, dated 1981)
